In ChEMBL document CHEMBL5325443, “Discovery and structure-activity relationship of Morita-Baylis-Hillman adducts as larvicides against dengue mosquito vector, Aedes aegypti (Diptera: Culicidae)” (2023):
≈ marks a conversion by molar mass, not a printed value. Calls of active or inactive are those of the source. No cut-off for these calls is given here.

Experiments:
Aedes aegypti [1] = experiment: Larvicidal activity against fourth instar Aedes aegypti larvae assessed as mortality rate at 100 ug/ml measured after 48 hrs relative to control; type: functional
Aedes aegypti [2] = experiment: Larvicidal activity against fourth instar Aedes aegypti larvae assessed as lethal concentration measured after 48 hrs; type: functional
Aedes aegypti [3] = experiment: Induction of morphological changes in fourth instar Aedes aegypti larvae assessed as damage in thorax at LC50 concentration measured after 48 hrs by scanning electron microscopic analysis; type: functional
Aedes aegypti [4] = experiment: Induction of morphological changes in fourth instar Aedes aegypti larvae assessed as modification in terminal abdomen in 6th to 8th segment at LC50 concentration measured after 48 hrs by scanning electron microscopic analysis; type: functional, organism-based
Aedes aegypti [5] = experiment: Induction of morphological changes in fourth instar Aedes aegypti larvae assessed as loss in anal papillae at LC50 concentration measured after 48 hrs by scanning electron microscopic analysis; type: functional, organism-based

Row | SMILES | mortality at 100 µg/mL (Aedes aegypti [1]) | LC50 (Aedes aegypti [2]) | also measured
1 | C=C(C(=O)OC)C(O)/C=C/c1ccccc1 (stereo not given) | 71.7% |  | 
2 | C=C(C(=O)OCC)C(O)c1ccccc1Cl (stereo not given) | 85% | 86.7 µg/mL (≈ 360 µM) | 
3 | C=C(C(=O)OC)C(O)c1cc(OC)c(OC)c(OC)c1 (stereo not given) | 16.7% |  | 
4 | C=C(C(=O)OC)C(O)c1ccc(Cl)cc1 (stereo not given) | 81.7% | 88.2 µg/mL (≈ 389 µM) | 
5 | CC[C@H]1CCC[C@H](O[C@H]2CC[C@H](N(C)C)[C@@H](C)O2)[C@@H](C)C(=O)C2=C[C@@H]3[C@@H](C=C(C)[C@@H]4C[C@@H](O[C@@H]5O[C@@H](C)[C@H](OC)[C@@H](OC)[C@H]5OC)C[C@@H]34)[C@@H]2CC(=O)O1 [SPINOSYN D] |  | 0.02 µg/mL (≈ 0.0268 µM) | 
6 | C=C(C(=O)OC)C(O)c1ccccc1Cl (stereo not given) | 21.7% |  | 
7 | CC[C@H]1CCC[C@H](O[C@H]2CC[C@H](N(C)C)[C@@H](C)O2)[C@@H](C)C(=O)C2=C[C@@H]3[C@@H](C=C[C@@H]4C[C@@H](O[C@@H]5O[C@@H](C)[C@H](OC)[C@@H](OC)[C@H]5OC)C[C@@H]34)[C@@H]2CC(=O)O1 [SPINOSYN A] |  | 0.02 µg/mL (≈ 0.0273 µM) | 
8 | C=C(C(=O)OCC)C(O)c1ccc([N+](=O)[O-])cc1 (stereo not given) | 16.7% |  | 
9 | C=C(C(=O)OC)C(O)c1ccc(C)cc1 (stereo not given) | 10% |  | 
10 | C=C(C(=O)OC)C(O)c1ccc(Br)cc1 (stereo not given) | 51.7% |  | 
11 | CC(COc1ccc(Oc2ccccc2)cc1)Oc1ccccn1 (stereo not given) [PYRIPROXYFEN] |  | 1.75 µg/mL (≈ 5.45 µM) | 
12 | C=C(C(=O)OCC)C(O)c1nccs1 (stereo not given) | 10% |  | 
13 | C=C(C(=O)OC)C(O)c1ccc2ccccc2c1 (stereo not given) | 88.3% | 77.7 µg/mL (≈ 321 µM) | 
14 | CC[C@H]1CCC[C@H](O[C@H]2CC[C@H](NC)[C@@H](C)O2)[C@@H](C)C(=O)C2=C[C@@H]3[C@@H](C=C[C@@H]4C[C@@H](O[C@@H]5O[C@@H](C)[C@H](OC)[C@@H](OC)[C@H]5OC)C[C@@H]34)[C@@H]2CC(=O)O1 |  | 0.02 µg/mL (≈ 0.0279 µM) | 
15 | C=C(C(=O)OCC)C(O)c1ccc(OC)cc1 (stereo not given) | 21.7% |  | 
16 | C=C(C(=O)OC)C(O)c1ccc(F)cc1 (stereo not given) | 16.7% |  | 
17 | COP(=S)(OC)Oc1ccc(Sc2ccc(OP(=S)(OC)OC)cc2)cc1 [TEMEFOS] |  | 4.25 µg/mL (≈ 9.11 µM) | 
18 | C=C(C(=O)OC)C(O)c1ccc(-c2ccccc2)cc1 (stereo not given) | 93.3% | 41.4 µg/mL (≈ 154 µM) | Activity (Aedes aegypti [3]): 100%; Activity (Aedes aegypti [4]): Active; Activity (Aedes aegypti [5]): Active
